Row | SMILES | melting point [°C]
1 | CC1(c2ccc(F)cc2)Cc2cc(OCC(=O)O)c(Cl)c(Cl)c2C1=O (stereo not given) | 150 to 156
2 | CCOc1ccc(-c2ncccc2S(=O)(=O)Nc2ncc(C)nc2OC)cc1 | 162 to 163
3 | Cc1cc(CCCCCCCCCCc2cc(C)c(O)c(C(C)(C)C)c2)cc(C(C)(C)C)c1O | 96 to 98
4 | N[C@@H](Cc1ccc(C(F)(F)F)cc1)[C@H](O)c1ccccc1 (racemic) | 64 to 65
5 | CC[C@H](C)[C@@H](CO)NC(=O)[C@H](Cc1c[nH]cn1)NC(=O)[C@H](Cc1cccc2ccccc12)NC(=O)OCc1ccccc1 | 197 to 199
6 | COC1C(OC(=O)c2ccccc2)C(COC(=O)c2ccccc2)OC1n1cc([N+](=O)[O-])c(=O)[nH]c1=O (stereo not given) | 187 to 189
7 | CC(C)Cn1nc(-c2ccccc2)c(-c2ccccc2)c1CCl | 92
8 | CCOC(=O)c1cc(=O)c2cccc(N3CCN(C)CC3)c2o1 | 124 to 125
9 | C[C@H]1NC(C)(C)CO[C@]1(O)c1cccc(Cl)c1 | 128 to 131
10 | CCOC(=O)CNC(=O)Nc1ccc(C(=O)/C=C/c2ccc(-c3cccs3)cc2)cc1 | 209 to 212
11 | O=Cc1cc2cc(Cl)c(Cl)cc2nc1Cl | 190 to 191
12 | Clc1ccc(-c2cn3cccc4c3c2CCC4)cc1 | 131
13 | CSCC(C)(C)C(=O)N(C)c1cnc(-c2cncc(F)c2)s1 | 98 to 102
14 | N#Cc1cccc(C[C@H](N)C(=O)O)c1 | 248 to 250
15 | COc1ccc(C2=NN(C3CCN(C(=O)CN4C(=O)Cc5ccccc54)CC3)C(=O)C2(C)C)cc1OC | 178
16 | O=C(CCCCOc1ccc(-c2ccc(F)cc2)cc1)NO | 160 to 162
17 | CCC(/C=C(\OC)C(=O)OC)=C\c1cc2ccccc2[nH]1 | 93 to 95
18 | Cc1ccccc1C(Oc1cc(OCc2ccccc2)ccc1C#N)C(=O)O (racemic) | 128 to 130
19 | Cc1ccc(S(=O)(=O)N2CC3=CC(=O)CC3C2)cc1 (stereo not given) | 147 to 149
20 | COC(=O)C(c1cc2c(cc1Cl)OCO2)c1c[nH]c2cc(Br)ccc12 (stereo not given) | 172 to 174
21 | CCOc1c(C(N)=O)cnc2c(NC(=O)c3c(Cl)cccc3Cl)cccc12 | 242 to 245
22 | OC[C@@H]1CC[C@H](CO)O1 | 128 to 129
23 | O=C1NC(=O)C(c2ccc(F)cc2)(c2ccc(F)cc2)C(=O)N1 | 315 to 318
24 | CCOC(=O)NCCOC(=O)COc1cc(Oc2ccc(C(F)(F)F)cc2Cl)ccc1[N+](=O)[O-] | 94 to 95
25 | CC(=O)Nc1cccc(CNC(=O)[C@H]2N(C(=O)[C@@H](O)[C@H](Cc3ccccc3)NC(=O)c3cccc(O)c3C)CSC2(C)C)c1 | 145 to 147

Row | SMILES | melting point [°C]
26 | C#C[C@@H](C)N(O)C(N)=O | 120 to 123
27 | N#Cc1ccc(CCc2n[nH]c3c2c(=O)n(-c2ccccc2)c2ncccc32)cc1 | 267 to 269
28 | O=C1CC2OC(CS(=O)Cc3ccccc3)CN12 (racemic) | 80.5 to 94.5
29 | CC(=Cc1ccc(C)cc1C)c1ccc2c(c1)C(C)(C)CCC2(C)C | 54 to 56
30 | CCOC(=O)CC(=O)N=C(SC)N(C)N=Cc1ccccc1 | 74 to 75
31 | O=Cc1cc2cc(O)c(Cl)c(Cl)c2s1 | 197 to 198
32 | Cc1ccccc1-c1ccc(O)c(C(=O)O)c1 | 151
33 | COC(=O)c1ccc(CCNC(=O)C[C@H]2O[C@H](c3cccc(OC)c3OC)c3cc(Cl)ccc3N(CC(C)(C)CO)C2=O)cc1 | 167 to 169
34 | C#Cc1ccc(CO[C@@H]2COc3nc([N+](=O)[O-])cn3C2)cn1 | 168 to 170
35 | COc1ccc2c(c1)C(=O)C(=O)C1=C2OC2(CCN(CC(O)Cc3ccccc3)CC2)CS1 (stereo not given) | 146 to 147
36 | CC1(C)COC(c2ccc(F)cc2-c2ccc3c(c2)CCC(Cc2ccccc2)C3=O)=N1 (stereo not given) | 114 to 115
37 | CCOC(=O)C1=C(N)NC(C)=C(C(C)=O)C1c1cccc([N+](=O)[O-])c1 (stereo not given) | 217
38 | CC(Cc1ccc(OCc2cccc(C(=O)O)c2)cc1)NCCC(c1ccccc1)c1ccccc1 (stereo not given) | 209 to 212
39 | COc1cc(Nc2c(C#N)cnc3cc(I)ccc23)c(Cl)cc1Cl | 243 to 245
40 | CC(C)CC1(C)NCCNC1=O (stereo not given) | 79 to 82
41 | CCOC(=O)Cc1nn(Cc2ccc(Br)c(Cl)c2)c(=O)c2ccccc12 | 142 to 145
42 | Cc1cc2[nH]c(=O)ccc2c(Br)n1 | 276 to 278
43 | CCOC(=O)c1nnc(-c2ccc(OCC)cc2)o1 | 93
44 | CCCCNC(=O)NS(=O)(=O)c1ccc(CCNC(=O)N2Cc3ccc(Cl)cc3C2=O)cc1 | 208 to 210
45 | NS(=O)(=O)c1cc2cc(C=O)sc2o1 | 165 to 167
46 | C=CCC(NC(C)=O)C(=O)NCc1ccccc1 (stereo not given) | 118 to 120
47 | COc1ccc(C2=NC(C#N)CN2c2ccc(OCc3ccccc3)cc2)cc1 (stereo not given) | 121 to 122
48 | CC(C)(C)NC(=O)N(C=O)Oc1cc(Cl)ccc1Cl | 101 to 102
49 | N=C(Nc1ccccc1)Nc1nc(-c2ccccc2)cs1 | 179 to 180
50 | Cn1cc(C(N)=O)c(=O)c2sccc21 | 255 to 258

Row | SMILES | melting point [°C]
51 | Cc1cccc(-c2[nH]c(C(C)C)nc2-c2ccc(F)c(-c3c[nH]nn3)c2)n1 | 233 to 235
52 | Oc1cc(Br)c2oc(-c3ccc(O)c(F)c3)nc2c1 | 265 to 267
53 | COc1cc(F)c(C(=O)Cc2c(Cl)cncc2Cl)cc1OC1CCCC1 | 116
54 | COC(=O)CNC(=O)c1ncccc1O | 59 to 61
55 | CCC(CC)(CC(=O)Nc1cccc(SCc2ccc3ccc(F)cc3n2)c1)C(=O)O | 70 to 71
56 | C=CCc1cc2c(c(CC=C)c1O)N(CC=C(C)C)C(=O)CC2 | 94 to 96
57 | O=C1C(=Cc2ccc(Br)cc2)CCc2cc(OCCc3c[nH]cn3)ccc21 | 176 to 178
58 | O=c1ccsc2c3ccccc3n(CCN3CCOCC3)c12 | 136 to 137
59 | Cc1cccc(-n2ncc(-c3ccc(S(C)(=O)=O)cc3)c(-c3ccc(F)cc3)c2=O)c1 | 213 to 216
60 | C[C@@H](S[C@H]1CC[C@H](/C=C/C=C/c2ccc(C(F)(F)F)cc2)CC1)[C@](O)(Cn1cncn1)c1ccc(F)cc1F | 74 to 76
61 | COc1ccc(-c2ccc(C(N)=O)cc2)cc1-c1cccc([N+](=O)[O-])c1 | 201 to 205
62 | CN1Cc2cc(Cl)ccc2C(=O)c2cc(CC(=O)O)ccc21 | 191 to 194
63 | O=C(O)CC(NS(=O)(=O)c1ccc2ccccc2c1)c1ccccc1 (stereo not given) | 123 to 126
64 | CCOC(=O)C(=CNc1ccc(COC(C)=O)cc1I)C(=O)OCC | 128 to 131
65 | O=C(O)CCc1cc(C(c2cc(F)ccc2F)S(=O)(=O)c2ccc(Cl)cc2)c(F)cn1 (stereo not given) | 89 to 91
66 | CN(C)C=Cc1ccncc1C#N | 80 to 83
67 | CN1C(=O)CC[C@]2(C)c3ccc(Sc4nc(-c5ccccc5)cc5ccccc45)cc3CC[C@@H]12 | 183 to 189
68 | CC1(CCc2ccc(O)c(C(C)(C)C)c2)NC(=O)NC1=O (stereo not given) | 246
69 | CCOC(=O)c1ccc2cc(OC(=S)N(C)C)ccc2c1 | 128 to 130
70 | COc1ccc(-c2ccc(C=O)c3occc23)cc1 | 104 to 105
71 | CCOC(=O)C1=C(C)NC(C)=C(C(=O)OCCOC)C1c1cccc([N+](=O)[O-])c1 (stereo not given) | 108
72 | O=C(CC(=O)Nc1ccc2c(c1)NC(=O)C2)Nc1ccc(F)cc1 | 221
73 | CC(C)C(C)(C(=O)O)N1C(=O)c2ccccc2C1=O (stereo not given) | 151 to 152
74 | CCCCn1nc(C)c(CC(=O)O)c1C | 97 to 98
75 | CCOC1(c2ccccc2)CCN(C)CC1O (stereo not given) | 145 to 146

Row | SMILES | melting point [°C]
76 | CCNC(CC)CCOc1ccc(-c2ccc(C(=O)O)cc2)cc1-c1ccc2c(c1)C(C)(C)CCC2(C)C (stereo not given) | 195
77 | CCOC(=O)C1=C(C)NC(C)=C(C(=O)OC)C1c1ccccc1/C=C/C(=O)OC(C)(C)C (stereo not given) | 165 to 167
78 | CC(C)(C)OC(=O)NC1CCCCCC=CC2CC2(C(=O)NS(=O)(=O)C2CC2)NC(=O)C2CC(OC(=O)c3ccc4ccccc4c3)CN2C1=O (stereo not given) | 156 to 158
79 | Cc1ccccc1OCC(O)CNC(C)(C)COc1ccc(C(N)=O)cn1 (stereo not given) | 122 to 128
80 | N#Cc1c(O)[nH]c2cccnc12 | > 250
81 | N=C(Nc1cccc2ccccc12)Nc1cccc2ccccc12 | 210 to 211
82 | N#CC(Oc1nsnc(Cl)c1=O)c1cccc(Oc2ccccc2)c1 (stereo not given) | 146 to 148
83 | Nc1cc(-c2nc(-c3ccco3)no2)ccc1Cl | 203 to 204
84 | CCCN1CC=C(c2c[nH]c3ccc(OC)cc23)CC1 | 164
85 | Cc1nn(C)c2[nH]c(=O)c3c(c12)CCCC3 | > 300
86 | O=C(O)CCCCN(C1CCNCC1)S(=O)(=O)c1ccccc1 | 115 to 120
87 | N#CCC(=O)C(F)(F)C(F)(F)F | 47 to 54
88 | CCOc1c(C(C)=O)cnc2[nH]ncc12 | 245 to 248
89 | CS(=O)c1c(C=NO[Si](C)(C)C(C)(C)C)nn(-c2c(Cl)cc(C(F)(F)F)cc2Cl)c1N (stereo not given) | 150 to 154
90 | CC(C)(C)c1cc(CCc2ccccc2NC(=O)N2CCCCC2CCOCc2ccccc2)cc(C(C)(C)C)c1O (stereo not given) | 113 to 114
91 | CC(CCOc1cccc(=O)n1O)CC(C)(C)C (stereo not given) | 130 to 131
92 | O=C(Nc1ccc(-n2nc(C(F)(F)F)cc2C(F)(F)F)cc1)C1(O)CC1 | 198 to 200
93 | CC(C)Oc1cc(N2C(=O)C3COCCN3C2C(=O)O)c(F)cc1Cl (stereo not given) | 59 to 61
94 | CC(CN1CCN(CCc2ccc(C(=O)O)cc2)CC1)Oc1ccc(C(=O)O)cc1 (stereo not given) | 270 to 271
95 | CC(C)CCn1cc([N+](=O)[O-])cc1C(=O)Nc1cc(C(=O)NCCCN2CCOCC2)n(C)c1 | 155 to 158
96 | NS(=O)(=O)c1cccc(N/C=C2\C(=O)Nc3ccccc32)c1 | > 250
97 | CC(=O)COc1ccc(N2N=C3c4ccccc4SCC3CC2=O)cc1 (stereo not given) | 177 to 180
98 | CCCCCCCCCCCCCCCCS(=O)(=O)Nc1ccc(OC)c(NC(=O)CC(=O)C2(C)COC(C)(C)OC2)c1 | 68 to 70
99 | Cc1ccnc2[nH]c(=O)c(CC(=O)N(CCNC(=O)OC(C)(C)C)CC(=O)O)cc12 | 133 to 136
100 | COc1ccc(N2CCN(c3c(C)c(C)c4c(c3C)CC(C)(Cn3ccnc3C)O4)CC2)cc1 (stereo not given) | 86 to 90

Reference: a melting point compilation (Tetko et al.; mined from patent text by program, amines drawn as free bases though some values may be those of a salt)
